# Test results from publication PMC5259778, “Candidate pheromone receptors of codling moth Cydia pomonella respond to pheromones and kairomones” (Scientific Reports, 2017).
# What was measured:
# [1] = ref Scifinder, 2015; Chemspider; cited from earlier work
# CpomOR6a = test: Single sensillum recordings, CpomOR6a expressed in Drosophila at1 OSNs; type: cell-based, Cydia pomonella; conditions: for response compared with the solvent: 10 μg doses, Mann-Whitney U Test, p < 0.05; for Spike/s: 10 μg per stimulus
# Text: (§1) To perform heterologous expression in D. melanogaster OSNs, CpomORs were amplified using primers in Table 2 and purified PCR products were cloned into the PCR8/GW/TOPO plasmid (Invitrogen) following the recommended protocol. Cassettes with inserts were then transferred from their PCR8/GW/TOPO plasmids to the destination vector (pUASg-HA.attB, constructed by E. Furger and J. Bischof, kindly provided by the Basler group, Zürich), using the Gateway LR Clonase II kit (Invitrogen). The integrity and orientation of inserts was confirmed by sequencing (Sanger sequencer, 3730xl). Transformant UAS-CpomOR3 and UAS-CpomOR1 lines were generated by Best Gene (Chino Hills, CA, USA), using the PhiC31 integrase system, while the transformant UAS-CpomOR6a line was generated in our labs. Briefly, recombinant pUASg-HA.attB-CpomOR plasmids were injected into embryos of a D. melanogaster line containing an attP insertion site within the third chromosome (genotype y1 M{vas-int.Dm}ZH-2A w*; M{3xP3-RFP.attP}ZH-86Fb), leading to non-random integration. To drive expression of CpomORs in at1 OSNs in place of the endogenous receptor Or67d, transformant UAS-CpomOR lines were crossed to the knock-in Or67d^GAL4 line (kindly provided by Barry Dickson) to generate double homozygous lines w^+;UAS-CpomOR; Or67d^GAL4. Additionally, to drive expression of CpomOR3 in ab3A OSNs, the UAS-CpomOR3 line was crossed to the Δhalo;Or22a-Gal4 mutant line[20][57]. To verify insertion of UAS-CpomORs constructs into the genome, gDNA was extracted and used as template in PCR with primers for the full ORF of CpomORs (Table 2).
# (§2) CpomOR1 and CpomOR6a expressed in at1 OSNs, and CpomOR3 expressed in ab3A OSNs, were tested through single sensillum recordings (SSR). Three to 8-day-old flies were immobilized in 100 μL pipette tips with only the top half of the head protruding. The left antenna of each insect was gently pushed with a glass capillary against a double-sided adhesive tape placed on a piece of glass. This piece of glass and the pipette tip were fixed with dental wax on a microscope slide. Electrolytically sharpened tungsten electrodes (Harvard Apparatus Ltd, Edenbridge, United Kingdom) were used to penetrate the insect´s body. The reference electrode was manually inserted in the right eye of the fly, while the recording electrode was manoeuvred with a DC-3K micromanipulator equipped with a PM-10 piezo translator (Märzhäuser Wetzler GmbH, Wetzler, Germany) and inserted at the base of the determined sensilla. Signals coming from the olfactory sensory neurons were amplified 10 times with a probe (INR-02, Syntech, Hilversum, the Netherlands), digitally converted through an IDAC-4-USB (Syntech) interface, and visualized and analysed with the software Autospike v. 3.4 (Syntech). A constant flow of 0.65 m/s of humidified air (charcoal-filtered) was delivered through a glass tube to the antenna. The panel of odorants was given to the insect by inserting pipettes containing a piece of filter paper with the correspondent stimulus in a lateral hole of the glass tube and puffing a flow of 2.5 mL of air during 0.5 s through the pipette. For CpomOR1 and CpomOR6a the panel of odorants was prepared by applying 10 μL of a solution of 1.0 μg/μL of the compounds in Supplementary Dataset S2 and Supplementary Dataset S3, for a total amount of 10 μg per stimulus. In the case of CpomOR3, a similar dilution process was used for the dose response experiments of ethyl-(E,Z)-2,4-decadienoate and methyl-(E,Z)-2,4-decadienoate, as well for dose response of experiments of codlemone acetate in CpomOR6a. Compounds were diluted from concentrations ranging from 0.01 ng/μL to 10 μg/μL in decadic steps, allowing reaching concentrations from 100 pg to 100 μg per stimulus when 10 μL of the dilution was applied in the piece of filter paper. […]
# CpomOR1 = test: Single sensillum recordings, CpomOR1 expressed in Drosophila at1 OSNs; type: cell-based, Cydia pomonella; conditions: 10 μg per stimulus
# Text: as §1, §2
molecule,measurement,setting,value
CCC(C)CO (centres unmarked) [2-methyl-1-butanol],LogP,[1],1.192±0.187
CC(C)CCC(=O)c1ccoc1 [3-(4-methyl-1-oxopentyl)furan-],LogP,[1],2.851 ± 0.318
same,Solubility,[1],2100 µM
"C/C=C\C=C/CCCCCCCOC(C)=O [(Z,Z)-8,10:12Ac, (Z,Z)-8,10-dodecadien-1yl acetate]",response compared with the solvent,CpomOR6a,significantly activated
same,Spike/s,CpomOR6a; replicate 1,14 Spike/s
same,Spike/s,CpomOR6a; replicate 2,12 Spike/s
same,Spike/s,CpomOR6a; replicate 3,10 Spike/s
same,Spike/s,CpomOR6a; replicate 4,16 Spike/s
same,Spike/s,CpomOR6a; replicate 5,20 Spike/s
same,Spike/s,CpomOR6a; replicate 6,20 Spike/s
same,Spike/s,CpomOR6a; replicate 7,10 Spike/s
same,Spike/s,CpomOR6a; replicate 8,32 Spike/s
same,Spike/s,CpomOR6a; replicate 9,12 Spike/s
O=Cc1ccccc1 [benzaldehyde],LogP,[1],1.452±0.242
same,Solubility (M),[1],"0,02 M"
"CCC/C=C\CCCCCCCOC(C)=O [(Z)-8:12Ac, (Z)-8-dodecadien-1yl acetate]",Spike/s,CpomOR6a; replicate 1,0 Spike/s
same,Spike/s,CpomOR6a; replicate 2,0 Spike/s
same,Spike/s,CpomOR6a; replicate 3,0 Spike/s
same,Spike/s,CpomOR6a; replicate 4,4 Spike/s
same,Spike/s,CpomOR6a; replicate 5,-2 Spike/s
same,Spike/s,CpomOR6a; replicate 6,22 Spike/s
same,Spike/s,CpomOR6a; replicate 7,32 Spike/s
same,Spike/s,CpomOR6a; replicate 8,6 Spike/s
same,Spike/s,CpomOR6a; replicate 9,-8 Spike/s
"C=C/C=C(\C)CCC=C(C)C [4,8-Dimethyl-1,(E)-3,7-nonatriene]",Spikes/s,CpomOR1; replicate 1,2 Spikes/s
same,Spikes/s,CpomOR1; replicate 2,-6 Spikes/s
same,Spikes/s,CpomOR1; replicate 3,2 Spikes/s
same,Spikes/s,CpomOR1; replicate 4,4 Spikes/s
same,Spikes/s,CpomOR1; replicate 5,-8 Spikes/s
C/C=C/c1ccc(OC)c(OC)c1 [methyl-iso-eugenol],LogP,[1],3.049±0.239
same,Solubility,[1],3600 µM
O=Cc1ccc2c(c1)OCO2 [heliotropin],LogP,[1],1.050±0.302
CCCCCCCCCCCCO [1-dodecanol],Spikes/s,CpomOR1; replicate 1,-2 Spikes/s
same,Spikes/s,CpomOR1; replicate 2,4 Spikes/s
same,Spikes/s,CpomOR1; replicate 3,2 Spikes/s
same,Spikes/s,CpomOR1; replicate 4,-2 Spikes/s
same,Spikes/s,CpomOR1; replicate 5,2 Spikes/s
C/C1=C\CC/C(C)=C/CC(C)(C)/C=C/C1 [α-humulene],LogP,[1],6.592±0.249
same,Solubility (M),[1],"1,10E-08 M"
Dodecadien-1-yl acetate [12Ac],Spike/s,CpomOR6a; replicate 1,4 Spike/s
same,Spike/s,CpomOR6a; replicate 2,4 Spike/s
same,Spike/s,CpomOR6a; replicate 3,-2 Spike/s
same,Spike/s,CpomOR6a; replicate 4,6 Spike/s
same,Spike/s,CpomOR6a; replicate 5,10 Spike/s
same,Spike/s,CpomOR6a; replicate 6,6 Spike/s
same,Spike/s,CpomOR6a; replicate 7,0 Spike/s
same,Spike/s,CpomOR6a; replicate 8,12 Spike/s
same,Spike/s,CpomOR6a; replicate 9,-12 Spike/s
"CCC/C=C/CCCCCCCOC(C)=O [(E)-8:12Ac, (E)-8-dodecadien-1-yl acetate]",Spike/s,CpomOR6a; replicate 1,10 Spike/s
same,Spike/s,CpomOR6a; replicate 2,0 Spike/s
same,Spike/s,CpomOR6a; replicate 3,4 Spike/s
same,Spike/s,CpomOR6a; replicate 4,4 Spike/s
same,Spike/s,CpomOR6a; replicate 5,12 Spike/s
same,Spike/s,CpomOR6a; replicate 6,26 Spike/s
same,Spike/s,CpomOR6a; replicate 7,30 Spike/s
same,Spike/s,CpomOR6a; replicate 8,30 Spike/s
same,Spike/s,CpomOR6a; replicate 9,10 Spike/s
CC(=O)OCC=C(C)C [prenyl acetate],LogP,[1],2.017±0.274
same,Solubility (M),[1],"0,069 M"
O=CCc1ccccc1 [phenyl acetaldehyde],LogP,[1],1.760±0.224
same,Solubility (M),[1],"0,016 M"
CCCCC(=O)OC [methyl valerate],LogP,[1],1.804±0.205
CCC/C=C/C=O [trans-2-hexenal],LogP,[1],1.790±0.281
COC(=O)c1ccccc1 [methyl benzoate],Solubility (M),[1],"0,02 M"
CC/C=C/CCCCCCCCO [(E9)-12:OH],Spikes/s,CpomOR1; replicate 1,-4 Spikes/s
same,Spikes/s,CpomOR1; replicate 2,0 Spikes/s
same,Spikes/s,CpomOR1; replicate 3,2 Spikes/s
same,Spikes/s,CpomOR1; replicate 4,4 Spikes/s
same,Spikes/s,CpomOR1; replicate 5,-2 Spikes/s
C=CC(=C)CC/C=C(\C)CCC=C(C)C [(E)-β-farnesene],Spikes/s,CpomOR1; replicate 1,0 Spikes/s
same,Spikes/s,CpomOR1; replicate 2,4 Spikes/s
same,Spikes/s,CpomOR1; replicate 3,2 Spikes/s
same,Spikes/s,CpomOR1; replicate 4,0 Spikes/s
same,Spikes/s,CpomOR1; replicate 5,2 Spikes/s
"C/C=C\C=C\CCCCCCCO [(E8,Z10)-12:OH]",Spikes/s,CpomOR1; replicate 1,-2 Spikes/s
same,Spikes/s,CpomOR1; replicate 2,-2 Spikes/s
same,Spikes/s,CpomOR1; replicate 3,0 Spikes/s
same,Spikes/s,CpomOR1; replicate 4,-2 Spikes/s
same,Spikes/s,CpomOR1; replicate 5,-2 Spikes/s
"C/C=C\CCCCCCCCCOC(C)=O [(Z)-10:12Ac, (Z)-10-dodecadien-1-yl acetate]",Spike/s,CpomOR6a; replicate 1,0 Spike/s
same,Spike/s,CpomOR6a; replicate 2,6 Spike/s
same,Spike/s,CpomOR6a; replicate 3,2 Spike/s
same,Spike/s,CpomOR6a; replicate 4,2 Spike/s
same,Spike/s,CpomOR6a; replicate 5,6 Spike/s
same,Spike/s,CpomOR6a; replicate 6,12 Spike/s
same,Spike/s,CpomOR6a; replicate 7,14 Spike/s
same,Spike/s,CpomOR6a; replicate 8,4 Spike/s
same,Spike/s,CpomOR6a; replicate 9,4 Spike/s
C=C/C(C)=C/CC=C(C)C [(E)-β-ocimene],Spikes/s,CpomOR1; replicate 1,2 Spikes/s
same,Spikes/s,CpomOR1; replicate 2,8 Spikes/s
same,Spikes/s,CpomOR1; replicate 3,0 Spikes/s
same,Spikes/s,CpomOR1; replicate 4,2 Spikes/s
same,Spikes/s,CpomOR1; replicate 5,4 Spikes/s
"C/C=C/CCCCCCCCCOC(C)=O [(E)-10:12Ac, (E)-10-dodecadien-1-yl acetate]",response compared with the solvent,CpomOR6a,significantly activated
same,Spike/s,CpomOR6a; replicate 1,26 Spike/s
same,Spike/s,CpomOR6a; replicate 2,26 Spike/s
same,Spike/s,CpomOR6a; replicate 3,28 Spike/s
same,Spike/s,CpomOR6a; replicate 4,60 Spike/s
same,Spike/s,CpomOR6a; replicate 5,34 Spike/s
same,Spike/s,CpomOR6a; replicate 6,36 Spike/s
same,Spike/s,CpomOR6a; replicate 7,50 Spike/s
same,Spike/s,CpomOR6a; replicate 8,66 Spike/s
same,Spike/s,CpomOR6a; replicate 9,26 Spike/s
"C/C=C/C=C\CCCCCCCOC(C)=O [(Z,E)-8,10:12Ac, (Z,E)-8,10-dodecadien-1yl acetate]",Spike/s,CpomOR6a; replicate 1,10 Spike/s
same,Spike/s,CpomOR6a; replicate 2,2 Spike/s
same,Spike/s,CpomOR6a; replicate 3,-4 Spike/s
same,Spike/s,CpomOR6a; replicate 4,8 Spike/s
same,Spike/s,CpomOR6a; replicate 5,0 Spike/s
same,Spike/s,CpomOR6a; replicate 6,18 Spike/s
same,Spike/s,CpomOR6a; replicate 7,26 Spike/s
same,Spike/s,CpomOR6a; replicate 8,40 Spike/s
same,Spike/s,CpomOR6a; replicate 9,10 Spike/s
"C/C=C\C/C=C/CCCCCCCCOC(C)=O [(Z9,E12)-14:Ac]",Spikes/s,CpomOR1; replicate 1,2 Spikes/s
same,Spikes/s,CpomOR1; replicate 2,-4 Spikes/s
same,Spikes/s,CpomOR1; replicate 3,2 Spikes/s
same,Spikes/s,CpomOR1; replicate 4,-10 Spikes/s
same,Spikes/s,CpomOR1; replicate 5,0 Spikes/s
"C/C=C/C=C\CCCCCCCO [(Z8,E10)-12:OH]",Spikes/s,CpomOR1; replicate 1,0 Spikes/s
same,Spikes/s,CpomOR1; replicate 2,0 Spikes/s
same,Spikes/s,CpomOR1; replicate 3,6 Spikes/s
same,Spikes/s,CpomOR1; replicate 4,8 Spikes/s
same,Spikes/s,CpomOR1; replicate 5,-4 Spikes/s
"C/C=C\C=C\CCCCCCCOC(C)=O [(E,Z)-8,10:12Ac, (E,Z)-8,10-dodecadien-1yl acetate]",response compared with the solvent,CpomOR6a,significantly activated
same,Spike/s,CpomOR6a; replicate 1,6 Spike/s
same,Spike/s,CpomOR6a; replicate 2,10 Spike/s
same,Spike/s,CpomOR6a; replicate 3,16 Spike/s
same,Spike/s,CpomOR6a; replicate 4,6 Spike/s
same,Spike/s,CpomOR6a; replicate 5,8 Spike/s
same,Spike/s,CpomOR6a; replicate 6,24 Spike/s
same,Spike/s,CpomOR6a; replicate 7,16 Spike/s
same,Spike/s,CpomOR6a; replicate 8,34 Spike/s
same,Spike/s,CpomOR6a; replicate 9,2 Spike/s
C/C=C/CCCCCCCCCO [(E10)-12:OH],Spikes/s,CpomOR1; replicate 1,-2 Spikes/s
same,Spikes/s,CpomOR1; replicate 2,-2 Spikes/s
same,Spikes/s,CpomOR1; replicate 3,0 Spikes/s
same,Spikes/s,CpomOR1; replicate 4,-4 Spikes/s
same,Spikes/s,CpomOR1; replicate 5,2 Spikes/s
"C/C=C\C=C/CCCCCCCO [(Z8,Z10)-12:OH]",Spikes/s,CpomOR1; replicate 1,-2 Spikes/s
same,Spikes/s,CpomOR1; replicate 2,0 Spikes/s
same,Spikes/s,CpomOR1; replicate 3,0 Spikes/s
same,Spikes/s,CpomOR1; replicate 4,4 Spikes/s
same,Spikes/s,CpomOR1; replicate 5,12 Spikes/s
CCC/C=C/CCCCCCCO [(E8)-12:OH],Spikes/s,CpomOR1; replicate 1,-2 Spikes/s
same,Spikes/s,CpomOR1; replicate 2,4 Spikes/s
same,Spikes/s,CpomOR1; replicate 3,0 Spikes/s
same,Spikes/s,CpomOR1; replicate 4,0 Spikes/s
same,Spikes/s,CpomOR1; replicate 5,2 Spikes/s
CCCCCC(=O)OCCCC [butyl hexanoate],Spikes/s,CpomOR1; replicate 1,4 Spikes/s
same,Spikes/s,CpomOR1; replicate 2,-4 Spikes/s
same,Spikes/s,CpomOR1; replicate 3,2 Spikes/s
same,Spikes/s,CpomOR1; replicate 4,0 Spikes/s
same,Spikes/s,CpomOR1; replicate 5,-8 Spikes/s
